Patent US8148391B2 (Cephalon, Inc., priority 2006, dated 2012)
pIC50: −log10 of the molar value. Where two headings read alike, the source gives them in different places. Blank lines part the entries; values can stand above or below the compound they belong to.

How the values were obtained:
[1] = target: T1, c-Met (cytoplasmic domain) (Homo sapiens, UniProt P08581); test: c-Met Kinase Assay (same methods as for ALK, with modifications); type: biochemical
T1 construct: 10 ng/mL c-Met (cytoplasmic domain, Invitrogen Corporation #PV3143); purchased Invitrogen Corporation PV3143
T1 sequence (P08581 956-1390 limits assumed): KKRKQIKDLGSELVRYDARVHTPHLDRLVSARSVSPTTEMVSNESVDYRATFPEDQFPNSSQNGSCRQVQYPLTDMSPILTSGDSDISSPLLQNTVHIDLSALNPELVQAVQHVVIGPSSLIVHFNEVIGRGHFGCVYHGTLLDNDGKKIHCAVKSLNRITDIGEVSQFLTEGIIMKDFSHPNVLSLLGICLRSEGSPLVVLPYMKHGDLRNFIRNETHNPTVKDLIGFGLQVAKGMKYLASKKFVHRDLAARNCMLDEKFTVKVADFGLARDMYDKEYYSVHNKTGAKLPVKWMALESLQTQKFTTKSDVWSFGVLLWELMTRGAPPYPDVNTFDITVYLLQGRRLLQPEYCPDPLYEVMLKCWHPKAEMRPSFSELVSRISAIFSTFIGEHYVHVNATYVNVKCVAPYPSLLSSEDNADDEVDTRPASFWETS
Experimental: Briefly, each 96-well plate was coated with 100 μL/well of 10 μg/mL substrate (phospholipase C-γ) in Tris-buffered saline (TBS). […] The reaction was initiated by adding enzyme (30 ng/ml ALK) and was allowed to proceed at 37° C. for 15 minutes. Detection of the phosphorylated product was performed by adding 100 μl/well of Eu-N1 labeled PT66 antibody (Perkin Elmer # AD0041).
Data analysis was performed using ActivityBase (IDBS, Guilford, UK). IC50 values were calculated by plotting percent inhibition versus log10 of the concentration of compound and fitting to the nonlinear regression sigmoidal dose-response (variable slope) equation in XLFit (IDBS, Guilford, UK).
Reactions were initiated with 10 ng/mL c-Met (cytoplasmic domain, Invitrogen Corporation #PV3143).

[2] = target: T2, baculovirus-expressed ALK (Homo sapiens, UniProt Q9UM73); test: ALK Kinase Assay (ELISA-type, time-resolved fluorescence); type: biochemical
T2 construct: host or cells: baculovirus expression system
T2 sequence (Q9UM73 19-1620): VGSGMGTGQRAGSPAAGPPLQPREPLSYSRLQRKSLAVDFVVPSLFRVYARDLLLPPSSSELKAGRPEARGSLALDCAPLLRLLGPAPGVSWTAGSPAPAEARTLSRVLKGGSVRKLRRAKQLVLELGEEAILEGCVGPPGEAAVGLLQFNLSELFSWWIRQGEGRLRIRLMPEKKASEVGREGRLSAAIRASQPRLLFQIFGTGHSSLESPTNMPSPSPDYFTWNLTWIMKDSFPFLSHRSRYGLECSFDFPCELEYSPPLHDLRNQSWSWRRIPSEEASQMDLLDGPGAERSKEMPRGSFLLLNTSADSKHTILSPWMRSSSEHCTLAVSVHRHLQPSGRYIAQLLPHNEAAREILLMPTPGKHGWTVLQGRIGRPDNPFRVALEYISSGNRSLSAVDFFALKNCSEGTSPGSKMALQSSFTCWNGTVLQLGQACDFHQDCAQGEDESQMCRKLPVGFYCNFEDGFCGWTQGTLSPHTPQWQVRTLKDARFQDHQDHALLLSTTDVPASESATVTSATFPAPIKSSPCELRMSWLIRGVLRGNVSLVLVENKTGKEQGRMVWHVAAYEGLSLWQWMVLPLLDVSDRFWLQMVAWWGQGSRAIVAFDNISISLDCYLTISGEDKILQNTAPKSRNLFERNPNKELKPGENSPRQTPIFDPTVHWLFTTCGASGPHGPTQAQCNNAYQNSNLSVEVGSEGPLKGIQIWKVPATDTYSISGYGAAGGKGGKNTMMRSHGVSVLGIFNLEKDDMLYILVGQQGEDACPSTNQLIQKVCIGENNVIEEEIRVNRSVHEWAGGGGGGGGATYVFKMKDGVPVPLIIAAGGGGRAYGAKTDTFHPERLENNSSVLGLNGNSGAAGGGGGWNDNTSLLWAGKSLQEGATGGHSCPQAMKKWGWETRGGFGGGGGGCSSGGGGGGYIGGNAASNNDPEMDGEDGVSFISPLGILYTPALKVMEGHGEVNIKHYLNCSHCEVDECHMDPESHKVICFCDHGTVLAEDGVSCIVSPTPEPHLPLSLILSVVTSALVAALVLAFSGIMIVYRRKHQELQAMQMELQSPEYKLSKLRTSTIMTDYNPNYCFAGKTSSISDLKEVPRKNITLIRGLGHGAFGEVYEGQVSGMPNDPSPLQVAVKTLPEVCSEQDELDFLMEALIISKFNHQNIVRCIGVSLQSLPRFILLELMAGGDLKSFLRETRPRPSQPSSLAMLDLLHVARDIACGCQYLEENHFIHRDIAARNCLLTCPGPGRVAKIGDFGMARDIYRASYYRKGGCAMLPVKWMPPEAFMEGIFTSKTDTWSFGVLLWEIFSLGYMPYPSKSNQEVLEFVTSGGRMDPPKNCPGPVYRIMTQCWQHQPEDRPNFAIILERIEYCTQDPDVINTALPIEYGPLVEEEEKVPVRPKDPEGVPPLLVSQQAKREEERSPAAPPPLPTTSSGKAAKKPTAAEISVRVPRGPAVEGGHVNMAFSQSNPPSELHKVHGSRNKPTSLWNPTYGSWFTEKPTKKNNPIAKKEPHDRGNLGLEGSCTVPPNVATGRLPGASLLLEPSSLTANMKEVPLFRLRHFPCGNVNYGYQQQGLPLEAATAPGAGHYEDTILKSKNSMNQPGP
Procedure, shortened: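 Wells were coated with phospholipase C-γ at 10 μg/mL in Tris-buffered saline. Adding 30 ng/ml enzyme started the reaction, which ran at 37° C for 15 minutes before Eu-N1 PT66 antibody detection. Percent inhibition versus log10 concentration gave IC50 by variable-slope fit.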

[3] = 1 μM ATP (Km level), read-out: cMet Activity (c-Met Kinase Inhibition, IC50)
[4] = 1 μM ATP (Km level), read-out: ALK Activity (ALK Kinase Inhibition, IC50)
[5] = c-Met kinase inhibition, 1 μM ATP (Km level), read-out: cMet Activity
[6] = ALK kinase inhibition, 1 μM ATP (Km level), read-out: ALK Activity
[7] = c-Met kinase inhibition, 1 μM ATP, read-out: cMet Activity
[8] = ALK kinase inhibition, 1 μM ATP, read-out: ALK Activity

pIC50 [1, 3]: 5.00 to 6.00
pIC50 [2, 4]: > 7.00
Structure (SMILES): COc1c(Nc2ncc(Cl)c(Nc3ccccc3S(=O)(=O)C(C)C)n2)ccc2c1CCC(N1CCOCC1)CC2 (stereo not shown) [Example 883, 5-Chloro-N*2*-(1-methoxy-7-morpholin-4-yl-6,7,8,9-tetrahydro-5H-benzocyclohepten-2-yl)-N*4*-[2-(propane-2-sulfonyl)-phenyl]-pyrimidine-2,4-diamine]

pIC50 [1, 3]: < 5.00
pIC50 [2, 4]: > 7.00
Structure (SMILES): COCCNC1CCCc2c(ccc(Nc3ncc(Cl)c(N[C@@H]4CCCC[C@H]4NS(C)(=O)=O)n3)c2OC)C1 (stereo partly drawn) [Example 958, N-((1R,2R)-2-{5-Chloro-2-[1-methoxy-6-(2-methoxy-ethylamino)-6,7,8,9-tetrahydro-5H-benzocyclohepten-2-ylamino]-pyrimidin-4-ylamino}-cyclohexyl)-methanesulfonamide]

pIC50 [1, 5]: < 5.00
pIC50 [2, 6]: > 7.00
Structure (SMILES): COc1cc(N2CCOCC2)ccc1Nc1nc(Nc2ccc3c(c2OC)CCCC(=O)N3)ncc1Cl [Example 140, 7-[5-Chloro-4-(2-methoxy-4-morpholin-4-yl-phenylamino)-pyrimidin-2-ylamino]-6-methoxy-1,3,4,5-tetrahydro-benzo[b]azepin-2-one]

pIC50 [1, 3]: 6.00 to 7.00
pIC50 [2, 4]: > 7.00
Structure (SMILES): CNC(=O)C1C2C=CC(C2)C1Nc1nc(Nc2ccc3c(c2)CCC(N2CCOCC2)CC3)ncc1Cl (stereo not drawn) [Example 624, (2-exo-3-exo)-3-[5-Chloro-2-(7-morpholin-4-yl-6,7,8,9-tetrahydro-5H-benzocyclohepten-2-ylamino)-pyrimidin-4-ylamino]-bicyclo[2.2.1]hept-5-ene-2-carboxylic acid methylamide]

pIC50 [1, 3]: < 5.00
pIC50 [2, 4]: 5.00 to 6.00
Structure (SMILES): COc1ccccc1Nc1nc(Nc2cccc3c2OCCCC3)ncc1Cl [Example 864, 5-Chloro-N*4*-(2-methoxy-phenyl)-N*2*-(2,3,4,5-tetrahydrobenzo[b]oxepin-9-yl)-pyrimidine-2,4-diamine]

Further lines, the compound ahead of its results:

Structure (SMILES): COCCN1CCc2ccc(Nc3ncc(Cl)c(Nc4cc(C)n[nH]4)n3)cc2CC1 [Example 955, 5-Chloro-N(2)-[3-(2-methoxy-ethyl)-2,3,4,5-tetrahydro-1H-3-benzazepin-7-yl]-N(4)-(5-methyl-2H-pyrazol-3-yl)-pyrimidine-2,4-diamine]
pIC50 [1, 3]: 5.00 to 6.00
pIC50 [2, 4]: 6.00 to 7.00

Structure (SMILES): CCN1C(=O)CCCc2cc(Nc3ncc(Cl)c(Nc4ccc(N5CCOCC5)cc4OC)n3)c(OC)cc21 [Example 135, 7-[5-Chloro-4-(2-methoxy-4-morpholin-4-yl-phenylamino)-pyrimidin-2-ylamino]-1-ethyl-8-methoxy-1,3,4,5-tetrahydro-benzo[b]azepin-2-one]
pIC50 [1, 5]: < 5.00
pIC50 [2, 6]: > 7.00

Structure (SMILES): CCN1C(=O)[C@@H](N(C)C)CCc2c1ccc(Nc1ncc(Cl)c(N[C@H]3[C@@H](C(N)=O)[C@@H]4C=C[C@H]3C4)n1)c2OC (single isomer, unassigned) [Example 1347]
pIC50 ([1]; 1 μM ATP (Km level), 10 ng/mL c-Met, read-out: cMet Activity (c-Met kinase inhibition, IC50 class)): 5.00 to 6.00
pIC50 ([2]; 1 μM ATP (Km level), 30 ng/ml ALK, 37° C., 15 minutes, read-out: ALK Activity (ALK kinase inhibition, IC50 class)): > 7.00

Structure (SMILES): C#CCNc1nc(Nc2ccc3c(c2)CCN(CC)CC3)ncc1Cl [Example 153, 5-Chloro-N*2*-(3-ethyl-2,3,4,5-tetrahydro-1H-benzo[d]azepin-7-yl)-N*4*-prop-2-ynyl-pyrimidine-2,4-diamine]
pIC50 [1, 5]: 5.00 to 6.00
pIC50 [2, 6]: 5.00 to 6.00

Structure (SMILES): CNC(=O)c1cccc(F)c1Nc1nc(Nc2ccc3c(c2)N(CCN(C)C)CCCC3(C)C)ncc1Cl [Example 1638, 2-{5-Chloro-2-[1-(2-dimethylamino-ethyl)-5,5-dimethyl-2,3,4,5-tetrahydro-1H-benzo[b]azepin-8-ylamino]-pyrimidin-4-ylamino}-3-fluoro-N-methyl-benzamide]
pIC50 [1, 7]: > 7.00
pIC50 [2, 8]: > 7.00

Structure (SMILES): COCCN1CCc2ccc(Nc3ncc(Cl)c(Nc4c(F)cccc4OCC(=O)OC)n3)cc2CC1 [Example 1727, (2-{5-Chloro-2-[3-(2-methoxy-ethyl)-2,3,4,5-tetrahydro-1H-benzo[d]azepin-7-ylamino]-pyrimidin-4-ylamino}-3-fluoro-phenoxy)-acetic acid methyl ester]
pIC50 [1, 7]: 5.00 to 6.00
pIC50 [2, 8]: 5.00 to 6.00
